The text below walks through data of US20220213052A1, “INHIBITORS OF RNA-BINDING PROTEINS, COMPOSITIONS THEREOF, AND THERAPEUTIC USES THEROF” (The University of North Carolina at Chapel Hill, priority 2019, published 2022).

Structures are written as SMILES.

Test [1] concerns MDA-MB-231 mouse xenograft. The experiment in a line: MDA-MB-231 mouse xenograft model, KH-39 alone and with docetaxel. The format is in vivo, mice. To be noted: after three-week treatment; KH-39 i.p. 50 mg/kg 5 times per week; TXT i.v.; ***P<0.001, ****P<0.0001, n=12. The source says: Cytotoxicity assays (as described earlier in this disclosure) for various cancer cell lines will also be performed utilizing concentrations of a compound of the present technology that are below the lethal threshold for the compound for the particular cancer (a “sub-lethal concentration”) in combination with a chemotherapeutic compound (e.g., docetaxel or doxorubicin) to illustrate compounds of the present technology sensitize cancer cell lines to chemotherapy. By way of illustration in an in vivo model, in vivo antitumor efficacy of KH-39 was examined in combination with docetaxel (a first-line chemotherapy for human breast cancer) in a MDA-MB-231 mouse xenograft model. For this, tumor-bearing female athymic mice were provided according to the protocols described earlier in the present disclosure and were randomized into four groups. One group of mice was treated with KH-39 (i.p. 50 mg/kg, 5 times per week), one group with docetaxel (TXT; i.v. at the dosages and time intervals indicated in FIG. 12), one group with a combination of KH-39 and TXT (KH-39 i.p. 50 mg/kg, 5 times per week and TXT i.v. at the dosages and time intervals indicated in FIG. 12), and one group of mice as the vehicle control. FIG. 12 illustrates the results, providing the tumor growth curves for each group.

In test [2] the target is T1, HuR-bound target mRNAs in MDA-MB-231 cells (Homo sapiens, UniProt Q15717).
T1 construct: endogenous in cells; host or cells: MDA-MB-231
The experiment in a line: Ribonucleoprotein immunoprecipitation (RNP-IP) pull-down assay. The class given is cell-based. To be noted: 10 μM. As to the method: Pull-down Assay #2—Ribonuleoprotein Immunoprecipitation (RNP-IP): Cells with HuR overexpression were treated with compounds, then the cell cytoplasmic lysates collected using NE-PER Nuclear and Cytoplasmic Extraction Kit (Thermo Scientific), then the cell cytoplasmic lysates incubated with anti-HuR antibody, and subsequently Protein G agarose beads (from Roche) added to pull down HuR protein. The HuR-bound target mRNAs pulled down were measured by qRT-PCR using a reported method (Ji, Q., et al., MicroRNA miR-34 inhibits human pancreatic cancer tumor-initiating cells. PLoS One, 2009. 4(8): p. e6816, incorporated herein by reference). Mouse IgG will be used as negative control. Compounds of the present technology block the target mRNAs pulled down by HuR antibody.

Test [3] deals with T2, HuR protein bound to ARE^Msi1-Biotin (Homo sapiens, UniProt Q15717).
T2 construct: endogenous in cells; cytoplasmic lysate
The experiment in a line: RNA immunoprecipitation (RNA-IP) pull-down assay. To be noted: 20 μM. The class given is cell-based. As to the method: Pull-down Assay #1—RNA Immunoprecipitation (RNA-IP): Cells with HuR overexpression will be treated with compounds, then the cell cytoplasmic lysates were collected using NE-PER Nuclear and Cytoplasmic Extraction Kit (Thermo Scientific), and subsequently to the cell cytoplasmic lysates were added the biotinylated target ARE oligo from Msi1 mRNA (ARE^Msi1-Biotin). Following this, streptavidin beads were added to pull down HuR protein bound to ARE^Msi1-Biotin. Unlabeled target AREs used as positive control. Compounds of the present technology block the HuR pull-down by the biotinylated ARE oligo, illustrating inhibition of the HuR-mRNA interaction. For example, using 20 μM KH-39, 20 μM KH-56, and 10 μM KH-58 in such a RNA-IP assay provided the data illustrated in FIG. 5. The numbers immediately below the pictured bands in FIG. 5 are calculated by diving the band intensity of the particular sample by the band intensity of the DMSO treated sample (entry 3). […]

T1 sequence (Q15717 2-326 limits assumed): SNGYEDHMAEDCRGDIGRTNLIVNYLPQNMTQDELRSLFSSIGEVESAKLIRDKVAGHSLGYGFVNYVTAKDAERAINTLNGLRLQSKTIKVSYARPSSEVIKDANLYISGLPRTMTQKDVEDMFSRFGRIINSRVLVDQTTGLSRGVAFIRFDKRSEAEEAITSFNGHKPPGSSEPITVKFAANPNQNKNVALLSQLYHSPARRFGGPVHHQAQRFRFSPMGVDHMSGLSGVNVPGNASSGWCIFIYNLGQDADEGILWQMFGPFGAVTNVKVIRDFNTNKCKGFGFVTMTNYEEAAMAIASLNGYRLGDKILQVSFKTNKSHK
T2 sequence (Q15717 2-326 limits assumed): as above

As for `CC(C)(C)c1ccc(C(=O)Nc2ccc3[nH]c(C(=O)NO)cc3c2)cc1` [KH-39, 5-(4-(tert-butyl)benzamido)-N-hydroxy-1H-indole-2-carboxamide], the “relative tumor sizes versus control group” value in test [1] is given as “significantly smaller than those in control group”. Besides, the “HuR pull-down of target mRNAs” value in test [2] is “at least partially block HuR pull-down of target mRNAs”. The “ARE^Msi1-Biotin mediated pull-down of HuR protein” value in test [3] is “block ARE^Msi1-Biotin mediated pull-down of HuR protein”.
